Results on one molecule are retold here after patent publication US20120208882A1, “Organic Compounds” (priority 2005, published 2012).

Where a name gives a salt, the structure may show the parent alone. Read-outs that look alike come from different tables or passages of the source.

The target of assay [1] is rGPig-prostasin (Cavia porcellus, UniProt A0A286XIW9). Put plainly: Biochemical assay, recombinant guinea pig prostasin, fluorescent peptide substrate. As to the method:
(§1) Biochemical assays: Recombinant human prostasin and matriptase and guinea pig prostasin are generated according to methods described in Shipway et al., Biochemical and Biophysical Research Communications 2004; 324(2):953-63). The recombinant enzymes are incubated in an electrolyte buffer test compounds or vehicle in a suitable multiple well assay plate such as a 96 or 384 well plate. At a defined time after the mixing of enzyme with compound. Or vehicle, a suitable fluorescent peptide substrate is added to the assay mixture. As substrate becomes cleaved by the active enzyme; fluorescence (measured using a suitable fluorescence plate reader) increases and the rate of turnover of substrate (i.e. enzyme activity) can be quantified and thus the inhibitory effect of any test compound. The efficacy of test compounds is expressed as the concentration that induces a 50% attenuation in the enzyme activity (Ki). […] Short circuit current (ISC) is then measured by voltage clamping the epithelia to zero millivolts. The amiloride-sensitive ISC is then measured by the addition of amiloride (10 μM) to the apical surface of the epithelia. […] The tracheal potential difference, is then measured using a suitable high impedance voltmeter as described in Takahashi et al., Toxicol Appl Pharmacol. 1995; 131(1):31-6. […]

In assay [2] the target is T1, rh-matriptase (Homo sapiens, UniProt Q9Y5Y6).
T1 construct: made in house
T1 sequence (Q9Y5Y6 1-855): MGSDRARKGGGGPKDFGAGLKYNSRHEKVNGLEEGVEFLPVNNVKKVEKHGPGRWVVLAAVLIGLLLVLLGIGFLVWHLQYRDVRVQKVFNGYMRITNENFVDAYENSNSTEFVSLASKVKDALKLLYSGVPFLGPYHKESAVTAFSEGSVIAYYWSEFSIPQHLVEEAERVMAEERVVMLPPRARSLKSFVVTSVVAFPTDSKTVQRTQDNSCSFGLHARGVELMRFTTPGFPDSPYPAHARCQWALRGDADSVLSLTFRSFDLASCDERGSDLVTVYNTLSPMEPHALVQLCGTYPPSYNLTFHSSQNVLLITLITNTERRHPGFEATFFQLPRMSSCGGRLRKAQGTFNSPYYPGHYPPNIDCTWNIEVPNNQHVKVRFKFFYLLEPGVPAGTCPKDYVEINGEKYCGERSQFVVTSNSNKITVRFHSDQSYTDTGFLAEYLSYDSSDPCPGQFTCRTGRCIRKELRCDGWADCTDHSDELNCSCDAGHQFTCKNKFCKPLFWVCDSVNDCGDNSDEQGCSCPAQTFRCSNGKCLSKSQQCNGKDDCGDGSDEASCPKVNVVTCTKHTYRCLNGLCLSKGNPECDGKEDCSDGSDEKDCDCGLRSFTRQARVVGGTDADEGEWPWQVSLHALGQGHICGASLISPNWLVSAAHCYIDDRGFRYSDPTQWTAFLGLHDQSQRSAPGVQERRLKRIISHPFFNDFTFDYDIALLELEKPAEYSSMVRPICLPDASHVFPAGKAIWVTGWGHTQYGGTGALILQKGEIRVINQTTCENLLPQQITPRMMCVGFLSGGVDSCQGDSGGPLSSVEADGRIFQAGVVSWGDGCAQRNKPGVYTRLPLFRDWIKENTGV
Put plainly: Biochemical assay, recombinant human matriptase, fluorescent peptide substrate. As to the method: as §1

Assay [3] concerns Human bronchial epithelial cells (amiloride-sensitive, ENaC-mediated short circuit current). Put plainly: Epithelial ion transport: amiloride-sensitive short circuit current in Ussing chambers. The format is cell-based. The note with it: Epithelial cell, 1.5 h, 50% inhibition of aprotinin-sensitive component of amiloride-sensitive ISC, 90 minutes treatment, read-out: HBEC (IC50). As to the method:
as §1

Assay [4] deals with Guinea pig tracheal potential difference. Put plainly: Tracheal potential difference (in vivo). Conditions: for ED50: Cavia porcellus, inhaled or nasal, i.t., read-out: GPig tracheal PD in vivo (ED50). As to the method: Biochemical assays: Recombinant human prostasin and matriptase and guinea pig prostasin are generated according to methods described in Shipway et al., Biochemical and Biophysical Research Communications 2004; 324(2):953-63). The recombinant enzymes are incubated in an electrolyte buffer test compounds or vehicle in a suitable multiple well assay plate such as a 96 or 384 well plate. At a defined time after the mixing of enzyme with compound. Or vehicle, a suitable fluorescent peptide substrate is added to the assay mixture. As substrate becomes cleaved by the active enzyme; fluorescence (measured using a suitable fluorescence plate reader) increases and the rate of turnover of substrate (i.e. enzyme activity) can be quantified and thus the inhibitory effect of any test compound. The efficacy of test compounds is expressed as the concentration that induces a 50% attenuation in the enzyme activity (Ki). Epithelial ion transport: Human bronchial epithelial cells are cultured according to methods described in Danahay et al., American Journal of Physiology Lung Cell Molecular Physiology 2002; 282(2):L226-36). When suitably differentiated (days 14-21 after establishing an apical-air interface) epithelial cells are treated with either vehicle, aprotinin (200 μg/ml) or test compound for 90 minutes. Epithelia are then, placed into Ussing Chambers as described in Danahay et al., American Journal of Physiology Lung Cell Molecular Physiology 2002; 282(2):L226-36) maintaining the concentration of vehicle, aprotinin or test compound on the apical side of the epithelia. Short circuit current (ISC) is then measured by voltage clamping the epithelia to zero millivolts. The amiloride-sensitive ISC is then measured by the addition of amiloride (10 μM) to the apical surface of the epithelia. The potency of the test compound is expressed as the concentration inducing a 50% inhibition of the total aprotinin-sensitive component of the amiloride-sensitive ISC. Tracheal potential difference (in vivo): Guinea pigs are anaesthetized using a short acting inhalation anaesthesia such as halothane and N20. Whilst under short acting anaesthesia an oral gavage needle is inserted into the trachea via the oropharangeal route. Once inside the trachea, a small volume (50-200 μl) of vehicle or test compound, in a suitable aqueous-based diluent, is instilled into the airways. Animals then recover and become fully ambulatory. Alternatively test compounds can be administered to animals using aerosol or dry powder dosing. At a defined time after dosing, the animals are surgically anaesthetized using a suitable anaesthesia such as ketamine and xylazine. The trachea is then exposed and a plastic agar bridge electrode is inserted into the tracheal lumen. A reference electrode is also inserted into the layers, of muscle in the animal's neck. The tracheal potential difference, is then measured using a suitable high impedance voltmeter as described in Takahashi et al., Toxicol Appl Pharmacol. 1995; 131(1):31-6. The potency of the test compound is expressed as the dose inducing a 50% reduction in the sensitive-component of the tracheal potential difference.

The target of assay [5] is T2, rh-prostasin (Homo sapiens, UniProt Q16651).
T2 construct: made in house
Put plainly: Biochemical assay, recombinant human prostasin, fluorescent peptide substrate. As to the method:
as §1

Sequence of rGPig-prostasin (A0A286XIW9 1-343): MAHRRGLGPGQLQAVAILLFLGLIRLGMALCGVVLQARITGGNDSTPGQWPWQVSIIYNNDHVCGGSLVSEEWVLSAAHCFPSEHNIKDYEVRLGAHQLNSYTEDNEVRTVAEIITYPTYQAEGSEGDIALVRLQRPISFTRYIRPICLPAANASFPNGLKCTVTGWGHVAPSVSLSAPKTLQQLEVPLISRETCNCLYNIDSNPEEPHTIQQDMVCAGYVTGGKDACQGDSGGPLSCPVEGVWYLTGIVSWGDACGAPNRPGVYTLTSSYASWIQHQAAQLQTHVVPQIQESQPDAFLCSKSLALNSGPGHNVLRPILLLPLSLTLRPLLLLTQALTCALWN
T2 sequence (Q16651 33-343): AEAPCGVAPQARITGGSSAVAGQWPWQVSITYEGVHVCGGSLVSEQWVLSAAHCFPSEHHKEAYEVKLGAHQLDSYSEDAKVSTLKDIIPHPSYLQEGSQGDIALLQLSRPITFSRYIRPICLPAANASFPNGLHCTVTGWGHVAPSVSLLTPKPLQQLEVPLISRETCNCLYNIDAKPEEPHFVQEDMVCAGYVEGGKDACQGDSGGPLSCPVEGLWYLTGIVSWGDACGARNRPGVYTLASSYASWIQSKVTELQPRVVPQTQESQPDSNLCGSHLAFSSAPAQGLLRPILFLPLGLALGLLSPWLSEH

In general, Ki refers to a dissociation constant, usually derived from enzyme kinetics or from competition with a known ligand. The IC50 is the concentration that inhibits the measured activity by half. The term ED50 denotes the dose at which the effect has come halfway, by size or by number of responders. Consider `CN(C)C(=O)COC(=O)Cc1ccc(OC(=O)c2ccc(NC(=N)N)cc2)cc1` [Camostat mesylate, N,N-dimethyl-carbamoylmethyl-p-(p-guanidinobenzoyloxy)phenylacetate], for which the inhibition constant (Ki) in assay [1] amounted to 98 nM; in assay [2], 5 nM; in assay [5], 429 nM. Moreover, the concentration for half-maximal inhibition (IC50) in assay [3] was determined as 50 nM. The “Mean absolute tracheal potential difference (± s.e. mean)” value in assay [4] (2 hr, 1 μg/kg intra-tracheal) is on record as −10.0 ± 0.7; in assay [4] (2 hr, 3 μg/kg intra-tracheal), −7.3 ± 0.5; in assay [4] (2 hr, 10 μg/kg intra-tracheal) it was −6.4 ± 0.5; in assay [4] (2 hr, 30 μg/kg intra-tracheal), −5.3 ± 0.3; in assay [4] (2 hr, 100 μg/kg intra-tracheal), −4.7 ± 0.5; in assay [4] (5 hr, 3 μg/kg intra-tracheal), −10.8 ± 1.0. Moreover, the “Mean absolute tracheal potential difference (± s.e. mean)” value in assay [4] (5 hr, 10 μg/kg intra-tracheal) is recorded as −9.7 ± 1.5; in assay [4] (5 hr, 30 μg/kg intra-tracheal), −7.5 ± 0.4; in assay [4] (5 hr, 100 μg/kg intra-tracheal) it was −6.5 ± 0.3; in assay [4] (5 hr, 300 μg/kg intra-tracheal), −5.2 ± 0.3; in assay [4] (5 hr, 1000 μg/kg intra-tracheal) it was −5.7 ± 0.4. Also, the figures for the 50% effective dose (ED50) in assay [4] (2 hr after dosing) and in assay [4] (5 hr after dosing) were 0.0033 mg/kg and 0.026 mg/kg, respectively.
